# Patent US12527801B2, “Cell activator of animal cell” (Vitamin C60 BioResearch Corporation, priority 2019, dated 2026)
# System: Normal human epidermal keratinocytes
# Test: Action of activating epidermal cells (MTT reduction)
# Type: cell-based
# Conditions: for Index (%) Mean ± S.D.: 48 h, untreated cells = 100
# Method: Normal human epidermal keratinocytes were seeded on 96-well plates at the density of 5.0×10^3 cells/well using a HuMedia KG2 medium (KG2). 24 hours after seeding, the above-mentioned medium was replaced with a HuMedia KB2 medium (KB2) comprising the test sample. AOH and AHX (2-azahypoxanthine) were used as test samples, KG2 as a positive control (P. C.) for the cell activating action was treated instead of the test sample, and cells which were not treated with the samples were used as a negative control. After culturing for 48 hours, the above-mentioned medium was replaced with KB2 comprising 0.2 mg/mL of MTT to perform culturing for 1 hour. After removing the medium, the absorbance at 550 nm and 650 nm of the cell lysate in which 2-propanol was added to lyse the cells was measured. The amount of MTT reduced to blue formazan was obtained by subtracting the absorbance at 650 nm, which was derived from the cell turbidity, from the absorbance at 550 nm. The action of activating epidermal keratinocytes was shown as Index (%), which is a percentage of the absorbance of the cells, which was treated with the test samples, to the absorbance of the cells, which was not treated with the samples (negative control), with the amount of MTT reduced as an index.
smiles,measurement,setting,value
"O=c1[nH]nnc2[nH]cnc12 [AHX, 7H-imidazo[4,5-d][1,2,3]triazin-4(3H)-one, reference compound]",Index (%) Mean ± S.D.,3.9 μg/mL,100.6 ± 3%
same,Index (%) Mean ± S.D.,7.8 μg/mL,96.1 ± 2.7%
same,Index (%) Mean ± S.D.,15.6 μg/mL,94 ± 5.9%
same,Index (%) Mean ± S.D.,31.3 μg/mL,87.1 ± 4.5%
same,Index (%) Mean ± S.D.,62.5 μg/mL,80.2 ± 1.8%
same,Index (%) Mean ± S.D.,125 μg/mL,77.4 ± 2^ %
same,Index (%) Mean ± S.D.,250 μg/mL,78.4 ± 1.8%
same,Index (%) Mean ± S.D.,500 μg/mL,74.2 ± 1.9%
same,change in Index,concentration of 31.3 μg/mL or more,significantly reduced
same,proliferative effect / cell activating action,epidermal keratinocytes,did not have a proliferative effect
